Source: patent publication US20060069132A1, “Azolecarboxamide herbicides” (priority 2004, published 2006)

Legend:
morningglory [1] = assay: Test B pre-/postemergence herbicide test; assay type: in vivo, Ipomoea coccinea; details: for Plant response rating, Morningglory: preemergence; for Morningglory plant response rating: postemergence, visual rating, scale 0 (no effect) to 100 (complete control)
Procedure, shortened: (§1)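 Flooded paddy rice and barnyardgrass were treated at the 2-leaf stage; upland plantings received compound either on sown seed or on 1- to 4-leaf seedlings. All were kept 13–15 days in a greenhouse and scored visually, 0–100, relative to untreated plants.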

morningglory [2] = assay: Test A pre-/postemergence herbicide test; assay type: in vivo, Ipomoea spp.
Procedure, shortened: (§2)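 Plants are held in greenhouse about ten days after treatment, then compared with untreated controls and scored 0 (no effect) to 100 (complete control). Preemergence dosing is a directed soil spray on sown sandy loam; postemergence dosing is spray to runoff at 2–10 cm height.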

blackgrass = assay: Test B postemergence herbicide test; assay type: in vivo, Alopecurus myosuroides; details: postemergence, visual rating, scale 0 (no effect) to 100 (complete control)
Procedure, shortened: (§3)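 After treating 2-leaf paddy plants or 2–18 cm postemergence plants (1 to 4 leaves) with formulated chemical, researchers kept them in a greenhouse for 13–15 days. Effects were judged visually versus controls: 0 indicates none, 100 total control.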

giant foxtail [3] = assay: Test A pre-/postemergence herbicide test; assay type: in vivo, Setaria faberi
Procedure, shortened: as §2

wild oat = assay: Test B postemergence herbicide test; assay type: in vivo, Avena fatua; details: postemergence, visual rating, scale 0 (no effect) to 100 (complete control)
Procedure, shortened: (§4)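 Plants grow to 1- to 4-leaf stage (2–18 cm) for postemergence spraying, or to 2-leaf stage for the paddy test. Formulated compound is applied. Greenhouse holding lasts 13–15 days. Response is scored visually relative to controls, 0 no effect to 100 complete control; a dash means no result.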

large crabgrass [4] = assay: Test A pre-/postemergence herbicide test; assay type: in vivo, Digitaria sanguinalis
Procedure, shortened: as §2

giant foxtail [5] = assay: Test B pre-/postemergence herbicide test; assay type: in vivo, Setaria faberi; details: for Plant response rating, Foxtail, Giant: preemergence; for Foxtail, Giant plant response rating: postemergence, visual rating, scale 0 (no effect) to 100 (complete control)
Procedure, shortened: (§5)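 Evaluation is visual, comparing treated with control plants on a scale where 0 means no effect and 100 means full control. Treatments were preemergence, or postemergence on seedlings 2–18 cm tall, and held 13–15 days in the greenhouse.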

rice [6] = assay: Test B flooded paddy test; assay type: in vivo, Oryza sativa; details: 1000 g ai/ha, visual rating, scale 0 to 100 (0 no effect, 100 complete control), 13 to 15 days
Procedure, shortened: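 Each value is a visual 0–100 response rating taken against controls 13 to 15 days after treatment in the greenhouse. Plants received formulated chemical postemergence at the 1- to 4-leaf stage or, in flooded paddy, at the 2-leaf stage.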

cocklebur = assay: Test B pre-/postemergence herbicide test; assay type: in vivo, Xanthium strumarium; details: for Plant response rating, Cocklebur: preemergence; for Cocklebur plant response rating: postemergence, visual rating, scale 0 (no effect) to 100 (complete control)
Procedure, shortened: as §1

barnyardgrass [7] = assay: Test B flooded paddy test; assay type: in vivo, Echinochloa crus-galli; details: 1000 g ai/ha, visual rating, scale 0 to 100 (0 no effect, 100 complete control), 13 to 15 days
Procedure, shortened: as §3

velvetleaf [8] = assay: Test A pre-/postemergence herbicide test; assay type: in vivo, Abutilon theophrasti
Procedure, shortened: as §2

wheat = assay: Test B postemergence herbicide test; assay type: in vivo, Triticum aestivum; parameters: key to Wheat plant response rating: 0 = no effect, 100 = complete control; details: postemergence, visual rating, scale 0 (no effect) to 100 (complete control)
Procedure, shortened: as §4

pigweed = assay: Test B pre-/postemergence herbicide test; assay type: in vivo, Amaranthus retroflexus; details: for Plant response rating, Pigweed: preemergence; for Pigweed plant response rating: postemergence, visual rating, scale 0 (no effect) to 100 (complete control)
Procedure, shortened: as §5

rice [9] = assay: Test B pre-/postemergence herbicide test; assay type: in vivo, Oryza sativa; details: preemergence, 125 g ai/ha; 0 to 100 scale, 0 is no effect, 100 is complete control
Procedure, shortened: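 Plants compared with untreated controls 13–15 days post-treatment and given a visual 0–100 injury score. Applications: preemergence to seeds; postemergence at 1- to 4-leaf (2–18 cm); paddy species flooded, 2-leaf stage. Vehicle non-phytotoxic, surfactant included.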

ducksalad = assay: Test B flooded paddy test; assay type: in vivo, Heteranthera limosa; details: 1000 g ai/ha, visual rating, scale 0 to 100 (0 no effect, 100 complete control), 13 to 15 days
Procedure, shortened: as §3

corn = assay: Test B pre-/postemergence herbicide test; assay type: in vivo, Zea mays; details: for Plant response rating, Corn: preemergence; for Corn plant response rating: postemergence, visual rating, scale 0 (no effect) to 100 (complete control)
Procedure, shortened: as §5

barnyardgrass [10] = assay: Test B pre-/postemergence herbicide test; assay type: in vivo, Echinochloa crus-galli; details: for Plant response rating, Barnyardgrass: preemergence; for Barnyardgrass plant response rating: postemergence, visual rating, scale 0 (no effect) to 100 (complete control)
Procedure, shortened: as §1

redroot pigweed = assay: Test A pre-/postemergence herbicide test; assay type: in vivo, Amaranthus retroflexus
Procedure, shortened: as §2

[11] = test system: small flower umbrella sedge; assay: Test B flooded paddy test; assay type: in vivo, Cyperus difformis; details: 1000 g ai/ha, visual rating, scale 0 to 100 (0 no effect, 100 complete control), 13 to 15 days
Procedure, shortened: as §3

Surinam grass = assay: Test B pre-/postemergence herbicide test; assay type: in vivo, Urochloa decumbens; details: for Plant response rating, Surinam Grass: preemergence; for Surinam Grass plant response rating: postemergence, visual rating, scale 0 (no effect) to 100 (complete control)
Procedure, shortened: as §5

velvetleaf [12] = assay: Test B pre-/postemergence herbicide test; assay type: in vivo, Abutilon theophrasti; details: for Plant response rating, Velvetleaf: preemergence; for Velvetleaf plant response rating: postemergence, visual rating, scale 0 (no effect) to 100 (complete control)
Procedure, shortened: as §5

barnyardgrass [13] = assay: Test A pre-/postemergence herbicide test; assay type: in vivo, Echinochloa crus-galli
Procedure, shortened: as §2

lambsquarters = assay: Test B pre-/postemergence herbicide test; assay type: in vivo, Chenopodium album; details: for Plant response rating, Lambsquarters: preemergence; for Lambsquarters plant response rating: postemergence, visual rating, scale 0 (no effect) to 100 (complete control)
Procedure, shortened: as §5

large crabgrass [14] = assay: Test B pre-/postemergence herbicide test; assay type: in vivo, Digitaria sanguinalis; details: for Plant response rating, Crabgrass, Large: preemergence; for Crabgrass, Large plant response rating: postemergence, visual rating, scale 0 (no effect) to 100 (complete control)
Procedure, shortened: as §5

[15] = 500 g ai/ha, visual rating 0-100, 0 no effect, 100 complete control
[16] = 125 g ai/ha, 0 to 100 scale, 0 is no effect, 100 is complete control
[17] = Postemergence, 500 g ai/ha, 0 to 100 scale, 0 no effect, 100 complete control
[18] = Postemergence, 2000 g ai/ha, 0 to 100 scale, 0 no effect, 100 complete control
[19] = Preemergence, 500 g ai/ha, visual rating, 0 to 100 scale (0 no effect, 100 complete control)
[20] = Preemergence, 2000 g ai/ha, visual rating, 0 to 100 scale (0 no effect, 100 complete control)
[21] = preemergence, 500 g ai/ha, visual injury, 0 to 100 scale (0 no effect, 100 complete control)

CC(=O)c1cc(NC(=O)c2cc(C(C)(C)C)nn2C)ccc1F [Compound 123]
20: Plant response rating, Barnyardgrass (barnyardgrass [13]; [18])
0: Plant response rating, Morningglory (morningglory [1]; [15]) | Morningglory plant response rating (morningglory [1]; 125 g ai/ha) | Morningglory plant response rating (morningglory [1]; 500 g ai/ha) | Plant response rating, Morningglory (morningglory [1]; [16]) | Morningglory plant response rating (morningglory [2]; [17]) | Morningglory plant response rating (morningglory [2]; [19]) | Morningglory plant response rating (morningglory [2]; [20]) | Blackgrass plant response rating (blackgrass; 125 g ai/ha) | Blackgrass plant response rating (blackgrass; 500 g ai/ha) | Foxtail, Giant plant response rating (giant foxtail [3]; [17]) | Foxtail, Giant plant response rating (giant foxtail [3]; [19]) | Foxtail, Giant plant response rating (giant foxtail [3]; [20]) | Oat, Wild plant response rating (wild oat; 125 g ai/ha) | Oat, Wild plant response rating (wild oat; 500 g ai/ha) | Crabgrass, Large plant response rating (large crabgrass [4]; [20]) | Plant response rating, Foxtail, Giant (giant foxtail [5]; [15]) | Foxtail, Giant plant response rating (giant foxtail [5]; 125 g ai/ha) | Foxtail, Giant plant response rating (giant foxtail [5]; 500 g ai/ha) | Plant response rating, Foxtail, Giant (giant foxtail [5]; [16]) | Rice plant response rating (rice [6]) | Plant response rating, Cocklebur (cocklebur; [15]) | Cocklebur plant response rating (cocklebur; 125 g ai/ha) | Cocklebur plant response rating (cocklebur; 500 g ai/ha) | Plant response rating, Cocklebur (cocklebur; [16]) | Barnyardgrass plant response rating (barnyardgrass [7]) | Velvetleaf plant response rating (velvetleaf [8]; [17]) | Velvetleaf plant response rating (velvetleaf [8]; [20]) | Velvetleaf plant response rating (velvetleaf [8]; [21]) | Wheat plant response rating (wheat; 125 g ai/ha) | Wheat plant response rating (wheat; 500 g ai/ha) | Plant response rating, Pigweed (pigweed; [15]) | Pigweed plant response rating (pigweed; 125 g ai/ha) | Pigweed plant response rating (pigweed; 500 g ai/ha) | Plant response rating, Pigweed (pigweed; [16]) | Plant response rating, Rice (rice [9]) | Plant response rating, Corn (corn; [15]) | Corn plant response rating (corn; 125 g ai/ha) | Corn plant response rating (corn; 500 g ai/ha) | Plant response rating, Corn (corn; [16]) | Plant response rating, Barnyardgrass (barnyardgrass [10]; [15]) | Barnyardgrass plant response rating (barnyardgrass [10]; 125 g ai/ha) | Barnyardgrass plant response rating (barnyardgrass [10]; 500 g ai/ha) | Plant response rating, Barnyardgrass (barnyardgrass [10]; [16]) | Pigweed plant response rating (redroot pigweed; [17]) | Pigweed plant response rating (redroot pigweed; [20]) | Pigweed plant response rating (redroot pigweed; [21]) | Plant response rating, Surinam Grass (Surinam grass; [15]) | Surinam Grass plant response rating (Surinam grass; 125 g ai/ha) | Surinam Grass plant response rating (Surinam grass; 500 g ai/ha) | Plant response rating, Surinam Grass (Surinam grass; [16]) | Plant response rating, Velvetleaf (velvetleaf [12]; [15]) | Velvetleaf plant response rating (velvetleaf [12]; 125 g ai/ha) | Velvetleaf plant response rating (velvetleaf [12]; 500 g ai/ha) | Plant response rating, Velvetleaf (velvetleaf [12]; [16]) | Plant response rating, Lambsquarters (lambsquarters; [15]) | Lambsquarters plant response rating (lambsquarters; 125 g ai/ha) | Lambsquarters plant response rating (lambsquarters; 500 g ai/ha) | Plant response rating, Lambsquarters (lambsquarters; [16]) | Plant response rating, Crabgrass, Large (large crabgrass [14]; [15]) | Crabgrass, Large plant response rating (large crabgrass [14]; 125 g ai/ha) | Crabgrass, Large plant response rating (large crabgrass [14]; 500 g ai/ha) | Plant response rating, Crabgrass, Large (large crabgrass [14]; [16])
10: Plant response rating, Morningglory (morningglory [2]; [18]) | Plant response rating, Foxtail, Giant (giant foxtail [3]; [18]) | Crabgrass, Large plant response rating (large crabgrass [4]; [17]) | Plant response rating, Crabgrass, Large (large crabgrass [4]; [18]) | Plant response rating, Velvetleaf (velvetleaf [8]; [18])
15: Crabgrass, Large plant response rating (large crabgrass [4]; [19]) | Plant response rating, Pigweed (redroot pigweed; [18])
50: Ducksalad plant response rating (ducksalad) | Barnyardgrass plant response rating (barnyardgrass [13]; [20])
5: Barnyardgrass plant response rating (barnyardgrass [13]; [17]) | Barnyardgrass plant response rating (barnyardgrass [13]; [19])
30: Sedge, Umbrella plant response rating [11]
